{"source": "paper PMC9150124", "about": "“Design of a Potent, Selective, and Brain-Penetrant Inhibitor of Wnt-Deactivating Enzyme Notum by Optimization of a Crystallographic Fragment Hit” (Journal of Medicinal Chemistry, 2022)", "assay_in_all_cases": "SelectScreen kinase profiling, SSBK LanthaScreen Binding SP Technology", "key": {"[1]": {"molecular_target": "kinase named in conditions (Homo sapiens, UniProt Q9UEW8)", "conditions": "STK39 (STLK3), 10 μM"}, "[2]": {"molecular_target": "kinase named in conditions (Homo sapiens, UniProt Q00536)", "sequence (Q00536 whole entry)": "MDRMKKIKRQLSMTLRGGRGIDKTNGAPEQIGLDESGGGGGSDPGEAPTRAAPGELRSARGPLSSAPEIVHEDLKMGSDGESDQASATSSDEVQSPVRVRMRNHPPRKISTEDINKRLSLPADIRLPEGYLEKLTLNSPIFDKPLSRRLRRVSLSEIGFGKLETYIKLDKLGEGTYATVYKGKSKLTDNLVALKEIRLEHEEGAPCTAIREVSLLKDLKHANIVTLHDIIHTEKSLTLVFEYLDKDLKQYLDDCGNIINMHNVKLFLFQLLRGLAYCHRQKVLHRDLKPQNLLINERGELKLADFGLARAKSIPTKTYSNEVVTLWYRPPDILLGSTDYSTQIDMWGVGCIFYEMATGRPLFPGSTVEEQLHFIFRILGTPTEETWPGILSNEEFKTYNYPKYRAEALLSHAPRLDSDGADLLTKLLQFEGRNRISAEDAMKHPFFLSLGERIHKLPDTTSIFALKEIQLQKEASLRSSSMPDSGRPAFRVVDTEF", "conditions": "CDK16 (PCTK1)/cyclin Y, 10 μM"}, "[3]": {"molecular_target": "kinase named in conditions (Homo sapiens, UniProt O75460)", "conditions": "ERN1, 10 μM"}, "[4]": {"molecular_target": "kinase named in conditions (Homo sapiens, UniProt Q9Y616)", "conditions": "IRAK3, 10 μM"}, "[5]": {"molecular_target": "kinase named in conditions (Homo sapiens, UniProt Q15208)", "sequence (Q15208 whole entry)": "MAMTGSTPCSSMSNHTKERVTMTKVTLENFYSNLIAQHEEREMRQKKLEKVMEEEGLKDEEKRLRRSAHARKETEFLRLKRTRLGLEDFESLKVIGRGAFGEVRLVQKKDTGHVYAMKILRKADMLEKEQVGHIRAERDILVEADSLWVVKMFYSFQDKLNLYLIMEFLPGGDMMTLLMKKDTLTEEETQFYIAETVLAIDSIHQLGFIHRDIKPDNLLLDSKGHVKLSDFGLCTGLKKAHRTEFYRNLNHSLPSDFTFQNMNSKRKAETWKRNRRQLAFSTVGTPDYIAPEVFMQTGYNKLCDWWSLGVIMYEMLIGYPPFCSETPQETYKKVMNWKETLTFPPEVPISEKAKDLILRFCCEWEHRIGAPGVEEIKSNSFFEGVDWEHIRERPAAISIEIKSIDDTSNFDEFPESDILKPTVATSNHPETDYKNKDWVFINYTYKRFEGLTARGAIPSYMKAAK", "conditions": "STK38 (NDR), 10 μM"}, "[6]": {"molecular_target": "kinase named in conditions (Homo sapiens, UniProt Q86UX6)", "conditions": "STK32C (YANK3), 10 μM"}, "[7]": {"molecular_target": "kinase named in conditions (Homo sapiens, UniProt Q9H093)", "conditions": "NUAK2, 10 μM"}, "[8]": {"molecular_target": "kinase named in conditions (Homo sapiens, UniProt Q02750)", "conditions": "MAP2K1 (MEK1), 10 μM"}, "[9]": {"molecular_target": "kinase named in conditions (Homo sapiens, UniProt Q9UKI8)", "conditions": "TLK1, 10 μM"}, "[10]": {"molecular_target": "kinase named in conditions (Homo sapiens, UniProt Q9HBH9)", "conditions": "MKNK2 (MNK2), 10 μM"}, "[11]": {"molecular_target": "kinase named in conditions (Homo sapiens, UniProt Q96RR4)", "sequence (Q96RR4 whole entry)": "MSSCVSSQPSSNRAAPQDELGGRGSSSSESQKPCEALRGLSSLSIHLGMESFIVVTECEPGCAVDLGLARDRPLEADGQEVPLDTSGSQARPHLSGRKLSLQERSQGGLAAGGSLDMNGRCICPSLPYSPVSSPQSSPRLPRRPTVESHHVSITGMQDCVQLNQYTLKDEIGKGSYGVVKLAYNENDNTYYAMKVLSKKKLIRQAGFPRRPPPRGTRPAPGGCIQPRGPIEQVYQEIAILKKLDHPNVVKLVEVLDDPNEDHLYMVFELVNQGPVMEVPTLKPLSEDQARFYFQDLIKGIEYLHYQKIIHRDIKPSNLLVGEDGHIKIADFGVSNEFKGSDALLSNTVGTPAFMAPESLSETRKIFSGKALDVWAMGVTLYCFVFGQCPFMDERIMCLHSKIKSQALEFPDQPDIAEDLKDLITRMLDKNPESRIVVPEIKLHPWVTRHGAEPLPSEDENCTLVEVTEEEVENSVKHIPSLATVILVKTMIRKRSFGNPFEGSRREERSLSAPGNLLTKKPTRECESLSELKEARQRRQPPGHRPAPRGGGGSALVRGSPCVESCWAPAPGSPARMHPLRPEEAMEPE", "conditions": "CAMKK2 (CaMKK beta), 10 μM"}, "[12]": {"molecular_target": "kinase named in conditions (Homo sapiens, UniProt Q8WXR4)", "conditions": "MYO3B (MYO3 beta), 10 μM"}, "[13]": {"molecular_target": "kinase named in conditions (Homo sapiens, UniProt Q96GX5)", "conditions": "MASTL, 10 μM"}, "[14]": {"molecular_target": "kinase named in conditions (Homo sapiens, UniProt P24941)"}, "[15]": {"molecular_target": "kinase named in conditions (Homo sapiens, UniProt P10721, V654A)", "sequence (P10721 26-976 V654A)": "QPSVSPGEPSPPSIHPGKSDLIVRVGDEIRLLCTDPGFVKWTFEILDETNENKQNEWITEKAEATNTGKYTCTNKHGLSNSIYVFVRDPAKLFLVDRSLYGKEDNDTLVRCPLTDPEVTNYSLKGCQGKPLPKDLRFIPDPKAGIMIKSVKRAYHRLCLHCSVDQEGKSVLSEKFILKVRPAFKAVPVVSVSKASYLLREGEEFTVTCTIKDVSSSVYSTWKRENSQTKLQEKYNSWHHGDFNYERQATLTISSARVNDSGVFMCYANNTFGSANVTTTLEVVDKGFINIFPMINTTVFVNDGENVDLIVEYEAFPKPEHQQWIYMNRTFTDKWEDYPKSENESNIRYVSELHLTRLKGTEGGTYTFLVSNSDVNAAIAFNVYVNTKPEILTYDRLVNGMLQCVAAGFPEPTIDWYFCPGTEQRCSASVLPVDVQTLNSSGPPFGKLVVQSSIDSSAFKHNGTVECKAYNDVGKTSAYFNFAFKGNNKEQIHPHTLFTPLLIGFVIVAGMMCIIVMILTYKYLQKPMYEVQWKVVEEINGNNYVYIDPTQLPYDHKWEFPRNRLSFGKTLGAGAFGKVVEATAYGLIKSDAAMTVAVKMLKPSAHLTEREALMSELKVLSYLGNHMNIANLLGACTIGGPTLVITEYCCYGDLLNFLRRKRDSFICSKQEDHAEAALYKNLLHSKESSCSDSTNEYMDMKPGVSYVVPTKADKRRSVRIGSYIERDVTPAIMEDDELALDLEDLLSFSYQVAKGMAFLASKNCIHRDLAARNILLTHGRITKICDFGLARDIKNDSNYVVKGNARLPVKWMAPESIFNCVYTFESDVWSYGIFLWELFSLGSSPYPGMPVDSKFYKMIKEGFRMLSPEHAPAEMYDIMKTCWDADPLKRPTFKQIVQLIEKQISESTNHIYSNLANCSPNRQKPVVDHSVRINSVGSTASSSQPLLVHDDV", "conditions": "KIT V654A, 10 μM"}, "[16]": {"molecular_target": "kinase named in conditions (Homo sapiens, UniProt Q8IVH8)", "conditions": "MAP4K3 (GLK), 10 μM"}, "[17]": {"molecular_target": "kinase named in conditions (Homo sapiens, UniProt Q16832)", "conditions": "DDR2, 10 μM"}, "[18]": {"molecular_target": "kinase named in conditions (Homo sapiens, UniProt P07949, G691S)", "sequence (P07949 29-1114 G691S)": "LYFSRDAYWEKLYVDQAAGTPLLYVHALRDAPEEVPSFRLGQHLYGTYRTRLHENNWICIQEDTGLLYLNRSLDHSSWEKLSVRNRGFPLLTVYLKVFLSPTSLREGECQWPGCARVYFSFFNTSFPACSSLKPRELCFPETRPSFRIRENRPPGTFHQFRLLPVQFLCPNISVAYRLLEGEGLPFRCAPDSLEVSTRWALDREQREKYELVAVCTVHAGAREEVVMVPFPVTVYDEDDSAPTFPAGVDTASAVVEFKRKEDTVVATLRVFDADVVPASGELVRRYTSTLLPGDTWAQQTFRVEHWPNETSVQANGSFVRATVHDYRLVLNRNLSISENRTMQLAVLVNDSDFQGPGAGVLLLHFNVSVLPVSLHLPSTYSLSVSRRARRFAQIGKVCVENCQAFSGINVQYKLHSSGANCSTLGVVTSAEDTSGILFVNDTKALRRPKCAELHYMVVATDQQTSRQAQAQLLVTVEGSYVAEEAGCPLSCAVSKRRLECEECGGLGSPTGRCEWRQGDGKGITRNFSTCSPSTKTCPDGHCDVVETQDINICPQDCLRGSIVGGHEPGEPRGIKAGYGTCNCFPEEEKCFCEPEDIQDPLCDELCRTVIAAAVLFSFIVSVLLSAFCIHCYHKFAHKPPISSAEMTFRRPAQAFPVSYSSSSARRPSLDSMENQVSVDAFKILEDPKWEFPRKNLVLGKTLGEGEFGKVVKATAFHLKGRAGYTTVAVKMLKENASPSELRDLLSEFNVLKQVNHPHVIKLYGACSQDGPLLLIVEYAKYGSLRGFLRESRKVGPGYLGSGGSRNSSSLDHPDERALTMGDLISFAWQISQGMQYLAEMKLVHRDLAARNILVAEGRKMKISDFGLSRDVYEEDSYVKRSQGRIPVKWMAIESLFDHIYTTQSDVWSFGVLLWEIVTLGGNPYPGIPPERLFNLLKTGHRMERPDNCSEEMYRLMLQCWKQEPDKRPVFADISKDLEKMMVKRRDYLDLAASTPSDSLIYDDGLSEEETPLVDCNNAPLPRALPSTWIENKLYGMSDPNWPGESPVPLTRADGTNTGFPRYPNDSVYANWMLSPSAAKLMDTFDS", "conditions": "RET G691S, 10 μM"}, "[19]": {"molecular_target": "kinase named in conditions (Homo sapiens, UniProt P10721, T670I/V559D)", "sequence (P10721 26-976 V559D/T670I)": "as the sequence (P10721 26-976 V654A) above, with V534D, A629V, T645I counted along it", "conditions": "KIT V559D T670I, 10 μM"}, "[20]": {"molecular_target": "kinase named in conditions (Homo sapiens, UniProt P10721, T670E)", "sequence (P10721 26-976 T670E)": "as the sequence (P10721 26-976 V654A) above, with A629V, T645E counted along it", "conditions": "KIT T670E, 10 μM"}, "[21]": {"molecular_target": "kinase named in conditions (Homo sapiens, UniProt Q02763, R849W)", "conditions": "TEK (TIE2) R849W, 10 μM"}, "[22]": {"molecular_target": "kinase named in conditions (Homo sapiens, UniProt Q8NFD2)", "conditions": "ANKK1, 10 μM"}, "[23]": {"molecular_target": "kinase named in conditions (Homo sapiens, UniProt Q9BWU1)", "sequence (Q9BWU1 whole entry)": "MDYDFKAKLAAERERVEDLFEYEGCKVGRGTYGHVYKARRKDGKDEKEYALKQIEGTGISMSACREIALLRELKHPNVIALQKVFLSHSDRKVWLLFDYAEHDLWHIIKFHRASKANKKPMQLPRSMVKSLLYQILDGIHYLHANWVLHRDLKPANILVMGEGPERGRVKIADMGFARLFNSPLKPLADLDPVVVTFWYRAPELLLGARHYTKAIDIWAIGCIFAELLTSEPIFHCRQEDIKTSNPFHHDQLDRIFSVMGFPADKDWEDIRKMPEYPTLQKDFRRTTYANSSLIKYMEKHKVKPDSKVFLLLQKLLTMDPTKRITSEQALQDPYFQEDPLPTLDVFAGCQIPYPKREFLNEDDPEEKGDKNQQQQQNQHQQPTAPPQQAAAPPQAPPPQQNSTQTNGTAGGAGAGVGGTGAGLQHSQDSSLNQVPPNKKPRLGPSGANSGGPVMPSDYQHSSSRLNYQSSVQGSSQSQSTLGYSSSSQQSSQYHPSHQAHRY", "conditions": "10 μM"}, "[24]": {"molecular_target": "kinase named in conditions (Homo sapiens, UniProt P33981)", "conditions": "TTK, 10 μM"}, "[25]": {"molecular_target": "kinase named in conditions (Homo sapiens, UniProt O75385)", "conditions": "ULK1, 10 μM"}, "[26]": {"molecular_target": "kinase named in conditions (Homo sapiens, UniProt Q9BYT3)", "conditions": "STK33, 10 μM"}, "[27]": {"molecular_target": "kinase named in conditions (Homo sapiens, UniProt P53667)", "sequence (P53667 whole entry)": "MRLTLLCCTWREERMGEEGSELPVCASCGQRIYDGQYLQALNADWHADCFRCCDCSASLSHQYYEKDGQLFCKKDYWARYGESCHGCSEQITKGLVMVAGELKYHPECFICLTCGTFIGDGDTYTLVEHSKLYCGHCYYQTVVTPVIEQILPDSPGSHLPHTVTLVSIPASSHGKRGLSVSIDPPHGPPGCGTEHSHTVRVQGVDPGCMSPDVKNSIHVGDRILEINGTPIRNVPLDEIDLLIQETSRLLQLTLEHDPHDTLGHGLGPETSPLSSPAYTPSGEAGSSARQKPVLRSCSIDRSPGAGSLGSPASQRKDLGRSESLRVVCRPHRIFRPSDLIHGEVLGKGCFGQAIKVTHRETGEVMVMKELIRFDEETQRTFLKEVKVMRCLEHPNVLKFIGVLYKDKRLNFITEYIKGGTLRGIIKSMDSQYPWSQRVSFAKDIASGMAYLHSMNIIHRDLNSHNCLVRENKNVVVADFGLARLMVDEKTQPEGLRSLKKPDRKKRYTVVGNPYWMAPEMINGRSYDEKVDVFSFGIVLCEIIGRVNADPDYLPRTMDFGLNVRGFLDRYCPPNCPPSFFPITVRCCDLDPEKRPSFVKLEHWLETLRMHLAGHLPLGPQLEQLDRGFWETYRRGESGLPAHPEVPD", "conditions": "LIMK1, 10 μM"}, "[28]": {"molecular_target": "kinase named in conditions (Homo sapiens, UniProt O94921)", "conditions": "CDK14 (PFTK1)/cyclin Y, 10 μM"}, "[29]": {"molecular_target": "kinase named in conditions (Homo sapiens, UniProt Q92630)", "conditions": "DYRK2, 10 μM"}, "[30]": {"molecular_target": "kinase named in conditions (Homo sapiens, UniProt Q9UKE5)", "conditions": "TNIK, 10 μM"}, "[31]": {"molecular_target": "kinase named in conditions (Homo sapiens, UniProt P11362, V561M)", "conditions": "FGFR1 V561M, 10 μM"}, "[32]": {"molecular_target": "kinase named in conditions (Homo sapiens, UniProt O75716)", "conditions": "STK16 (PKL12), 10 μM"}, "[33]": {"molecular_target": "kinase named in conditions (Homo sapiens, UniProt Q15375)", "conditions": "EPHA7, 10 μM"}, "[34]": {"molecular_target": "kinase named in conditions (Homo sapiens, UniProt P57059)", "conditions": "SIK1, 10 μM"}}, "data": [{"smiles": "FC(F)(F)c1c(Cl)ccc(-n2ccnn2)c1Cl", "note": "[8l, 1-(2,4-Dichloro-3-(trifluoromethyl)phenyl)-1H-1,2,3-triazole]", "values": [{"measurement": "inhibition at 10 µM", "setting": "[1]", "value": 13, "unit": "%"}, {"measurement": "inhibition at 10 µM", "setting": "[2]", "value": 8, "unit": "%"}, {"measurement": "inhibition at 10 µM", "setting": "[3]", "value": -4, "unit": "%"}, {"measurement": "inhibition at 10 µM", "setting": "[4]", "value": 15, "unit": "%"}, {"measurement": "inhibition at 10 µM", "setting": "[5]", "value": -8, "unit": "%"}, {"measurement": "inhibition at 10 µM", "setting": "[6]", "value": 8, "unit": "%"}, {"measurement": "inhibition at 10 µM", "setting": "[7]", "value": 7, "unit": "%"}, {"measurement": "inhibition at 10 µM", "setting": "[8]", "value": 26, "unit": "%"}, {"measurement": "inhibition at 10 µM", "setting": "[9]", "value": 7, "unit": "%"}, {"measurement": "inhibition at 10 µM", "setting": "[10]", "value": 3, "unit": "%"}, {"measurement": "inhibition at 10 µM", "setting": "[11]", "value": -1, "unit": "%"}, {"measurement": "inhibition at 10 µM", "setting": "[12]", "value": 4, "unit": "%"}, {"measurement": "inhibition at 10 µM", "setting": "[13]", "value": -8, "unit": "%"}, {"measurement": "inhibition at 10 µM", "setting": "[14]; CDK2/cyclin A1, 10 μM", "value": 3, "unit": "%"}, {"measurement": "inhibition at 10 µM", "setting": "[14]; CDK2/cyclin E1, 10 μM", "value": -4, "unit": "%"}, {"measurement": "inhibition at 10 µM", "setting": "[14]; CDK2/cyclin O, 10 μM", "value": 7, "unit": "%"}, {"measurement": "inhibition at 10 µM", "setting": "[15]", "value": 14, "unit": "%"}, {"measurement": "inhibition at 10 µM", "setting": "[16]", "value": 6, "unit": "%"}, {"measurement": "inhibition at 10 µM", "setting": "[17]", "value": -3, "unit": "%"}, {"measurement": "inhibition at 10 µM", "setting": "[18]", "value": -8, "unit": "%"}, {"measurement": "inhibition at 10 µM", "setting": "[19]", "value": -3, "unit": "%"}, {"measurement": "inhibition at 10 µM", "setting": "[20]", "value": 1, "unit": "%"}, {"measurement": "inhibition at 10 µM", "setting": "[21]", "value": 19, "unit": "%"}, {"measurement": "inhibition at 10 µM", "setting": "[22]", "value": -4, "unit": "%"}, {"measurement": "inhibition at 10 µM", "setting": "[23]; CDK11 (Inactive)", "value": 12, "unit": "%"}, {"measurement": "inhibition at 10 µM", "setting": "[23]; CDK11/cyclin C", "value": 23, "unit": "%"}, {"measurement": "inhibition at 10 µM", "setting": "[24]", "value": 5, "unit": "%"}, {"measurement": "inhibition at 10 µM", "setting": "[25]", "value": -2, "unit": "%"}, {"measurement": "inhibition at 10 µM", "setting": "[26]", "value": 6, "unit": "%"}, {"measurement": "inhibition at 10 µM", "setting": "[27]", "value": 6, "unit": "%"}, {"measurement": "inhibition at 10 µM", "setting": "[28]", "value": 43, "unit": "%"}, {"measurement": "inhibition at 10 µM", "setting": "[29]", "value": -1, "unit": "%"}, {"measurement": "inhibition at 10 µM", "setting": "[30]", "value": 0, "unit": "%"}, {"measurement": "inhibition at 10 µM", "setting": "[31]", "value": 4, "unit": "%"}, {"measurement": "inhibition at 10 µM", "setting": "[32]", "value": 17, "unit": "%"}, {"measurement": "inhibition at 10 µM", "setting": "[33]", "value": 0, "unit": "%"}, {"measurement": "inhibition at 10 µM", "setting": "[34]", "value": -3, "unit": "%"}]}]}
